From patent US20120225180A1, “SALTINESS-IMPROVING AGENT FOR SALTY FOOD AND DRINK” (priority 2009, published 2012)

Assay: Saltiness evaluation of shiokara (comparison evaluation of flavor by 10 panelists)
Format: in vivo
Settings: for Evaluation A: the number of panelists who felt stimulation of saltiness / Evaluation B: the number of panelists who slightly felt stimulation of saltiness / Evaluation N: the number of panelists who judged that the stimulation of saltiness was reduced to mild saltiness / Flavor judgment: the number of panelists who judged it as most proper saltiness: 10 panelists
Description: Sedanenolide was added as a saltiness-improving agent (salty stimulation-reducing agent) of the present invention to commercially available salted squid to obtain shiokara containing sedanenolide at the concentrations shown in the following Table 1.
A: the number of panelists who felt stimulation of saltiness B: the number of panelists who slightly felt stimulation of saltiness N: the number of panelists who judged that the stimulation of saltiness was reduced to mild saltiness Flavor judgment: the number of panelists who judged it as most proper saltiness

[1] = shiokara containing 0.01 ppb sedanenolide
[2] = shiokara containing 0.01 ppm sedanenolide
[3] = shiokara containing 0.1 ppb sedanenolide
[4] = shiokara containing 0.1 ppm sedanenolide
[5] = shiokara containing 1 ppb sedanenolide
[6] = shiokara containing 1 ppm sedanenolide
[7] = shiokara containing 1 ppt sedanenolide
[8] = shiokara containing 10 ppm sedanenolide

In the case of `CCCC[C@@H]1OC(=O)C2=C1CCC=C2` [sedanenolide], the “saltiness improvement, overall result” value (amount of sedanenolide about 0.1 ppb to 1 ppm) is reported as “particularly good results”, the “improvement in stimulation of saltiness” value (low concentration of 0.01 ppb sedanenolide) is reported as “some panelists felt some improvement in stimulation of saltiness” and the “Evaluation A: the number of panelists who felt stimulation of saltiness” value (“Evaluation A: the number” below) [1] is reported as 6. The “Evaluation B: the number of panelists who slightly felt stimulation of saltiness” value (from here on “Evaluation B: the number”) [1] was 4, the “Evaluation N: the number of panelists who judged that the stimulation of saltiness was reduced to mild saltiness” value [1] was 0 and the “Flavor judgment: the number of panelists who judged it as most proper saltiness” value (“Flavor judgment: the number” below) [1] was 0. For the same compound, the stimulation of saltiness (shiokara containing 0.01 ppb to 10 ppm of sedanenolide) was “improved”, the “Evaluation A: the number” value [2] was 2 and the “Evaluation B: the number” value [2] was 2. The “Evaluation N: the number of panelists who judged that the stimulation of saltiness was reduced to mild saltiness” value [2] was 6, the “Flavor judgment: the number” value [2] was 3 and the “Evaluation A: the number” value [3] was 2. For the same compound, the “Evaluation B: the number” value [3] was 7, the “Evaluation N: the number of panelists who judged that the stimulation of saltiness was reduced to mild saltiness” value [3] was 1 and the “Flavor judgment: the number” value [3] was 0. The “Evaluation A: the number” value [4] was 1, the “Evaluation B: the number” value [4] was 2 and the “Evaluation N: the number of panelists who judged that the stimulation of saltiness was reduced to mild saltiness” value [4] was 7. The “Flavor judgment: the number” value [4] was 4, the “Evaluation A: the number” value [5] was 3 and the “Evaluation B: the number” value [5] was 2. For the same compound, the “Evaluation N: the number of panelists who judged that the stimulation of saltiness was reduced to mild saltiness” value [5] was 5, the “Flavor judgment: the number” value [5] was 0 and the “Evaluation A: the number” value [6] was 0. The “Evaluation B: the number” value [6] was 1, the “Evaluation N: the number of panelists who judged that the stimulation of saltiness was reduced to mild saltiness” value [6] was 9 and the “Flavor judgment: the number” value [6] was 2. The “Evaluation A: the number” value [7] was 10, the “Evaluation B: the number” value [7] was 0 and the “Evaluation N: the number of panelists who judged that the stimulation of saltiness was reduced to mild saltiness” value [7] was 0. For the same compound, the “Flavor judgment: the number” value [7] was 0, the “Evaluation A: the number” value [8] was 0 and the “Evaluation B: the number” value [8] was 1. The “Evaluation N: the number of panelists who judged that the stimulation of saltiness was reduced to mild saltiness” value [8] was 9 and the “Flavor judgment: the number” value [8] was 1.
